Experimental data reported in ChEMBL document CHEMBL5154787 (J Med Chem, 2022).
Values after ≈ are worked out from the molar mass of the structure shown. One block for each compound: values may come before it.

Assays:
[1] = Plasma concentration in CCI induced thermal hyperalgesia in Sprague-Dawley rat at 1 mg/kg, po measured at 5.5 hrs post dose; assay type: ADME, organism-based
[2] = biological target: Solute carrier organic anion transporter family member 1B1 (Homo sapiens, UniProt Q9Y6L6); test: Inhibition of OATP1B1 (unknown origin)
[3] = biological target: Solute carrier organic anion transporter family member 1B3 (Homo sapiens, UniProt Q9NPD5); test: Inhibition of OATP1B3 (unknown origin)
[4] = biological target: Hepatic sodium/bile acid cotransporter (Homo sapiens, UniProt Q14973); test: Inhibition of NTCP (unknown origin)
Sequence of Hepatic sodium/bile acid cotransporter (Q14973 whole entry): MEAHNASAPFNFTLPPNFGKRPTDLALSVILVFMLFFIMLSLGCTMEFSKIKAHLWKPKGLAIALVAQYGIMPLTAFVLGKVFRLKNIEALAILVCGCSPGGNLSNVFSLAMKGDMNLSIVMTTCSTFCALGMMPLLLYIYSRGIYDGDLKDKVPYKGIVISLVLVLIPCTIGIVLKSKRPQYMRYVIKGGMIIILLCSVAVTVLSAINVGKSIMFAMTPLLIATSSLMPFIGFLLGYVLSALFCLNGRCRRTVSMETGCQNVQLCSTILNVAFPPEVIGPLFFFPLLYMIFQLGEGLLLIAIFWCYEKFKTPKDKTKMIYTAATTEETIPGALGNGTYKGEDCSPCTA

[5] = biological target: Bile salt export pump (Homo sapiens, UniProt O95342); test: Inhibition of BSEP (unknown origin)
Sequence of Bile salt export pump (O95342 whole entry): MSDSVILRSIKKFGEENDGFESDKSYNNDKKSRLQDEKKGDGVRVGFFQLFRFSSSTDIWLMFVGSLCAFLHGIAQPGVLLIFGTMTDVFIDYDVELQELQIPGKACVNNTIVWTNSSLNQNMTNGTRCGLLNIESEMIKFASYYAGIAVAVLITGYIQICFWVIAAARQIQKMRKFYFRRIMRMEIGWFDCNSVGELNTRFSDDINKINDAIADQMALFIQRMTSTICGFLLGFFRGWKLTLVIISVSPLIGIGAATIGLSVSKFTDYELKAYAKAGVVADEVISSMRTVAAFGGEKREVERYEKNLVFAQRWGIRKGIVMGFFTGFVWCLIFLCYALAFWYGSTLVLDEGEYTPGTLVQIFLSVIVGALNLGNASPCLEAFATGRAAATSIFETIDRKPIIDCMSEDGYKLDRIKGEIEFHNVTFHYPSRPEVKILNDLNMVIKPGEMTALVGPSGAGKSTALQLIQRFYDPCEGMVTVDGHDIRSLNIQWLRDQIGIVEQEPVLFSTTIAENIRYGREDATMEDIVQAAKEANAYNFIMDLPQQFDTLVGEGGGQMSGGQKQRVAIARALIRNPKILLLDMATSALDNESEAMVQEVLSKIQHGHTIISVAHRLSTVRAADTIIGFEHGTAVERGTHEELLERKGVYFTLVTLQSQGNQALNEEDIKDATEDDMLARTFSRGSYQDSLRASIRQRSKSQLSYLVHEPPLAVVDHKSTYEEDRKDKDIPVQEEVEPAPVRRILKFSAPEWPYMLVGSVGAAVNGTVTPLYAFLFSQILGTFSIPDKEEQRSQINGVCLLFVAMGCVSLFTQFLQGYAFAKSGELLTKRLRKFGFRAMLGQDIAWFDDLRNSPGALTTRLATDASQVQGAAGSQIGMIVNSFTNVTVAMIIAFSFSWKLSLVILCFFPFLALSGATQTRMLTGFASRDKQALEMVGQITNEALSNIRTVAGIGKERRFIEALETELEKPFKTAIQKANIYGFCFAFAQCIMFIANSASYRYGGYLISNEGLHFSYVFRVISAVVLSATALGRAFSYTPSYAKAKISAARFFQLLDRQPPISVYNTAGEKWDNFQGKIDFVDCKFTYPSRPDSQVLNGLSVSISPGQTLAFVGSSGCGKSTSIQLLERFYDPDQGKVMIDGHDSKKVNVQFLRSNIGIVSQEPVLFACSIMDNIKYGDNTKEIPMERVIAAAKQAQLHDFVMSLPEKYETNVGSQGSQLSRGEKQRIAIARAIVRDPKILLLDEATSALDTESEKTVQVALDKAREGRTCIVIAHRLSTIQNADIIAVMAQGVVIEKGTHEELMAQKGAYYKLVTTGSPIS

[6] = biological target: ATP-binding cassette sub-family C member 2 (Homo sapiens, UniProt Q92887); test: Inhibition of MRP2 (unknown origin)
[7] = biological target: Solute carrier family 22 member 6 (Homo sapiens, UniProt Q4U2R8); test: Inhibition of OAT1 (unknown origin)
[8] = biological target: Organic anion transporter 3 (Homo sapiens, UniProt Q8TCC7); test: Inhibition of OAT3 (unknown origin)
[9] = Tmax in rat at 3 mg/kg, po; assay type: ADME, organism-based; conditions: in vivo
[10] = In vivo protein occupancy at AAK1 in rat at 3 mg/kg, po measured after 4 hrs; assay type: functional
[11] = Drug concentration in rat spinal cord at 3 mg/kg, po measured after 4 hrs; assay type: ADME, organism-based; conditions: read-out: Ct
[12] = Ratio of drug concentration in spinal cord to plasma in rat at 3 mg/kg, po measured at 4 hrs post dose; assay type: ADME, organism-based
[13] = tested on: Rattus norvegicus; test: Analgesic activity in CCI induced thermal hyperalgesia in Sprague-Dawley rat assessed as reduction in thermal hyperalgesia by measuring inhibition of pain response at 1 mg/kg, po measured after 5.5 hrs by Hargreaves test relative to control; assay type: functional; design: scale not given: the % may be the effect or the level left
[14] = tested on: Rattus norvegicus; test: Analgesic activity in STZ induced in diabetic peripheral neuropathic path mechanical allodynia in Sprague-Dawley rat assessed as reversal in mechanical allodynia by measuring inhibition of pain response at 1 mg/kg, po measured up to 5.5 hrs by Hargreaves test relative to control; assay type: functional; design: scale not given: the % may be the effect or the level left
[15] = Plasma concentration in CCI induced thermal hyperalgesia in Sprague-Dawley rat at 3 mg/kg, po measured at 5.5 hrs post dose; assay type: ADME, organism-based
[16] = Drug concentration in CCI induced thermal hyperalgesia in Sprague-Dawley rat spinal cord at 3 mg/kg, po measured after 5.5 hrs; assay type: ADME, organism-based; conditions: read-out: Ct
[17] = Ratio of drug concentration in spinal cord to plasma in CCI induced thermal hyperalgesia in Sprague-Dawley rat at 3 mg/kg, po measured at 5.5 hrs post dose; assay type: ADME, organism-based
[18] = biological target: Citron Rho-interacting kinase (Homo sapiens, UniProt O14578); test: Inhibition of CRIK (unknown origin)
[19] = Protein binding in cynomolgus monkey plasma assessed as unbound fraction measured after 3 hrs by LC/MS/MS analysis; assay type: ADME, cell-free, Macaca fascicularis
[20] = Protein binding in dog plasma assessed as unbound fraction measured after 3 hrs by LC/MS/MS analysis; assay type: ADME, cell-free, Canis lupus familiaris
[21] = biological target: AP2-associated protein kinase 1 (Homo sapiens, UniProt Q2M2I8); test: Inhibition of bacterially expressed GST-Xa-tagged human AAK1 using 5-FAM-labelled Aha-KEEQSQITSQVTGQIGWR-NH2 peptide as substrate incubated for 3 hrs in presence of ATP by electrophoretic analysis
Sequence of AP2-associated protein kinase 1 (Q2M2I8 whole entry): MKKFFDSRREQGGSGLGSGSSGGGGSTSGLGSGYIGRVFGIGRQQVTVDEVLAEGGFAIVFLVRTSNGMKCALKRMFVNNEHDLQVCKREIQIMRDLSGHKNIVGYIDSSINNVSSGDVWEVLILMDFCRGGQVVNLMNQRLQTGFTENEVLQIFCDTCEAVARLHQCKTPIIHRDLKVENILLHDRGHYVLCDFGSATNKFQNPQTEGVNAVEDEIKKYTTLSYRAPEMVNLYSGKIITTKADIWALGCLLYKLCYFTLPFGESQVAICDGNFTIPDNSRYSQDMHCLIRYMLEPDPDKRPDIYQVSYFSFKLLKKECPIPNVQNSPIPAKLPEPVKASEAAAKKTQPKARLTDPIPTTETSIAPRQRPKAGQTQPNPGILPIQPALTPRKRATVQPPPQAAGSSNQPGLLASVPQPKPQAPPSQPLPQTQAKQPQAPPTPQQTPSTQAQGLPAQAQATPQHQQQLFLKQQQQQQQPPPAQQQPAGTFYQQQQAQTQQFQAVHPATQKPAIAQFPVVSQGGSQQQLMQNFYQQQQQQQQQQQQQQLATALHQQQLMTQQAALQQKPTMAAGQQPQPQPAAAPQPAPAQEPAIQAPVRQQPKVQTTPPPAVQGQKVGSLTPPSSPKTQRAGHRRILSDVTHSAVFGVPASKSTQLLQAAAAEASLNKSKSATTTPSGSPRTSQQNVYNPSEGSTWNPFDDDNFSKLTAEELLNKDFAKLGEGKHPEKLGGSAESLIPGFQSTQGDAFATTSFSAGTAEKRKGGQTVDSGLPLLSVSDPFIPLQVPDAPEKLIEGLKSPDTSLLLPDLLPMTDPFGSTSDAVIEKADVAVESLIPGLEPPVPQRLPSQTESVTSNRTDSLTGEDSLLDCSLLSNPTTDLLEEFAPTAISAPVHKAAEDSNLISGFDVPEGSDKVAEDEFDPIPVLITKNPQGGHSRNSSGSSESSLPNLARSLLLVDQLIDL

[22] = biological target: Acetylcholine receptor subunit alpha (Homo sapiens, UniProt P02708); test: Inhibition of nicotinic acetylcholine receptor alpha 1 (unknown origin); assay type: toxicity
Sequence of Acetylcholine receptor subunit alpha (P02708 whole entry): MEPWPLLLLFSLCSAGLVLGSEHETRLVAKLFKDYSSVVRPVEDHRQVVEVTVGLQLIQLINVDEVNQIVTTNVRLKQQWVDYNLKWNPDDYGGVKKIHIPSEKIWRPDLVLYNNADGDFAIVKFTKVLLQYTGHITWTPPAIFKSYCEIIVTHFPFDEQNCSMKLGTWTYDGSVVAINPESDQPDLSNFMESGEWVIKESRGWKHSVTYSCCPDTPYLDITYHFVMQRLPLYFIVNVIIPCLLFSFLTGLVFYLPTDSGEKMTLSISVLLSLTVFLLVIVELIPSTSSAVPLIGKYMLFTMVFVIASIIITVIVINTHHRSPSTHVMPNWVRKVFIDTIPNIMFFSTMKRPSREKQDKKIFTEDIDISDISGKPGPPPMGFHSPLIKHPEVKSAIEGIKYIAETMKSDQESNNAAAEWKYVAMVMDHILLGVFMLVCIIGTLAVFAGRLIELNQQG

[23] = biological target: T1, Homeodomain-interacting protein kinase 4 (Homo sapiens, UniProt Q8NE63); test: Inhibition of HIPK4 (unknown origin)
T1 sequence (Q8NE63 whole entry): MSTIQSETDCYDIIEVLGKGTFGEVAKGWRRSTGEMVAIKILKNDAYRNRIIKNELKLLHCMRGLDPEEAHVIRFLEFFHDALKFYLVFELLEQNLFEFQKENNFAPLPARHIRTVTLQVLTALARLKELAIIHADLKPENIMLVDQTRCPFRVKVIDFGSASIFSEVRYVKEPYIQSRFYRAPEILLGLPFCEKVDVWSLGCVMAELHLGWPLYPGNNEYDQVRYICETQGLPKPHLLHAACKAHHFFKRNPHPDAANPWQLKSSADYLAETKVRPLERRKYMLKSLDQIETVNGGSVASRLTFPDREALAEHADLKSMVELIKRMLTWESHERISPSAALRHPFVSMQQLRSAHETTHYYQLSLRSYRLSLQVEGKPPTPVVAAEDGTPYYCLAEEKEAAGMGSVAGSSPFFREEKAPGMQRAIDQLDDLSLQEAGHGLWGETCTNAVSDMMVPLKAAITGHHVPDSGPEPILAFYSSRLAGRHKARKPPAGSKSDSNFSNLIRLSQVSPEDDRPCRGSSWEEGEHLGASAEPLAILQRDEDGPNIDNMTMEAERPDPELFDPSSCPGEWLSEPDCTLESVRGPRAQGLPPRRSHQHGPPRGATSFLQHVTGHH

[24] = Inhibition of TAK/TAB (unknown origin)
[25] = Chemical stability of the compound assessed as remaining product at pH 7.4 measured after 22 hrs; assay type: physicochemical; conditions: buffer, read-out: Stability
[26] = Chemical stability of the compound assessed as remaining product at pH 1 measured after 22 hrs; assay type: physicochemical; conditions: buffer, read-out: Stability
[27] = Genotoxicity in chinese hamster CHO cells in presence of metabolic activation system at 169 uM by IVMN assay; assay type: toxicity, cell-based, Cricetulus griseus
[28] = Solubility of compound at pH 2 measured after 24 hrs; assay type: physicochemical; conditions: buffer
[29] = Solubility of compound at pH 4 measured after 24 hrs; assay type: physicochemical; conditions: buffer
[30] = Solubility of compound at pH 5 measured after 24 hrs; assay type: physicochemical; conditions: buffer
[31] = Solubility of compound at pH 6.5 measured after 24 hrs; assay type: physicochemical; conditions: buffer
[32] = Solubility of compound at pH 7.4 measured after 24 hrs; assay type: physicochemical; conditions: buffer
[33] = Solubility of compound in FaSSIF incubated for 24 hrs; assay type: physicochemical
[34] = tested on: Rattus norvegicus; test: Analgesic activity in STZ induced in diabetic peripheral neuropathic mechanical allodynia in Sprague-Dawley rat assessed as reduction in pain response at 10 mg/kg, po measured up to 24 hrs by Hargreaves test relative to control; assay type: functional; design: scale not given: the % may be the effect or the level left
[35] = tested on: Rattus norvegicus; test: Analgesic activity in STZ induced in diabetic peripheral neuropathic mechanical allodynia in Sprague-Dawley rat assessed as reduction in pain response at 3 mg/kg, po measured up to 24 hrs by Hargreaves test relative to control; assay type: functional; design: scale not given: the % may be the effect or the level left
[36] = tested on: Rattus norvegicus; test: Analgesic activity in STZ induced in diabetic peripheral neuropathic mechanical allodynia in Sprague-Dawley rat assessed as reversal in mechanical allodynia by measuring inhibition of pain response at 1 mg/kg, po measured up to 24 hrs by Hargreaves test relative to control; assay type: functional; design: scale not given: the % may be the effect or the level left
[37] = biological target: 5-hydroxytryptamine receptor 2B (Homo sapiens, UniProt P41595); test: Inhibition of 5HT2B receptor (unknown origin); assay type: toxicity
Sequence of 5-hydroxytryptamine receptor 2B (P41595 whole entry): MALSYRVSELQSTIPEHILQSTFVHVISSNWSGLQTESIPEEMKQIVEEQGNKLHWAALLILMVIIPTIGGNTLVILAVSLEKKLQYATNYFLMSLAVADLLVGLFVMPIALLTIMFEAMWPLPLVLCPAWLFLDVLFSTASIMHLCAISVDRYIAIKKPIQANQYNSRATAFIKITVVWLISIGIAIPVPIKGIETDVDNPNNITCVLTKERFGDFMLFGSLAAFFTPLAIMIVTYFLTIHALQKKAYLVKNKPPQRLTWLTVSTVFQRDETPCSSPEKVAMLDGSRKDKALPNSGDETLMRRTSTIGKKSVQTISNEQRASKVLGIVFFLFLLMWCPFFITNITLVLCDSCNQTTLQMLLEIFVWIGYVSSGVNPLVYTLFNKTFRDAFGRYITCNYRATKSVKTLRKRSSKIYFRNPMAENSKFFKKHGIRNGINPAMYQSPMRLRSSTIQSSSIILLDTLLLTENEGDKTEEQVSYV

[38] = biological target: Death-associated protein kinase 1 (Homo sapiens, UniProt P53355); test: Inhibition of DAPK1 (unknown origin)
Sequence of Death-associated protein kinase 1 (P53355 whole entry): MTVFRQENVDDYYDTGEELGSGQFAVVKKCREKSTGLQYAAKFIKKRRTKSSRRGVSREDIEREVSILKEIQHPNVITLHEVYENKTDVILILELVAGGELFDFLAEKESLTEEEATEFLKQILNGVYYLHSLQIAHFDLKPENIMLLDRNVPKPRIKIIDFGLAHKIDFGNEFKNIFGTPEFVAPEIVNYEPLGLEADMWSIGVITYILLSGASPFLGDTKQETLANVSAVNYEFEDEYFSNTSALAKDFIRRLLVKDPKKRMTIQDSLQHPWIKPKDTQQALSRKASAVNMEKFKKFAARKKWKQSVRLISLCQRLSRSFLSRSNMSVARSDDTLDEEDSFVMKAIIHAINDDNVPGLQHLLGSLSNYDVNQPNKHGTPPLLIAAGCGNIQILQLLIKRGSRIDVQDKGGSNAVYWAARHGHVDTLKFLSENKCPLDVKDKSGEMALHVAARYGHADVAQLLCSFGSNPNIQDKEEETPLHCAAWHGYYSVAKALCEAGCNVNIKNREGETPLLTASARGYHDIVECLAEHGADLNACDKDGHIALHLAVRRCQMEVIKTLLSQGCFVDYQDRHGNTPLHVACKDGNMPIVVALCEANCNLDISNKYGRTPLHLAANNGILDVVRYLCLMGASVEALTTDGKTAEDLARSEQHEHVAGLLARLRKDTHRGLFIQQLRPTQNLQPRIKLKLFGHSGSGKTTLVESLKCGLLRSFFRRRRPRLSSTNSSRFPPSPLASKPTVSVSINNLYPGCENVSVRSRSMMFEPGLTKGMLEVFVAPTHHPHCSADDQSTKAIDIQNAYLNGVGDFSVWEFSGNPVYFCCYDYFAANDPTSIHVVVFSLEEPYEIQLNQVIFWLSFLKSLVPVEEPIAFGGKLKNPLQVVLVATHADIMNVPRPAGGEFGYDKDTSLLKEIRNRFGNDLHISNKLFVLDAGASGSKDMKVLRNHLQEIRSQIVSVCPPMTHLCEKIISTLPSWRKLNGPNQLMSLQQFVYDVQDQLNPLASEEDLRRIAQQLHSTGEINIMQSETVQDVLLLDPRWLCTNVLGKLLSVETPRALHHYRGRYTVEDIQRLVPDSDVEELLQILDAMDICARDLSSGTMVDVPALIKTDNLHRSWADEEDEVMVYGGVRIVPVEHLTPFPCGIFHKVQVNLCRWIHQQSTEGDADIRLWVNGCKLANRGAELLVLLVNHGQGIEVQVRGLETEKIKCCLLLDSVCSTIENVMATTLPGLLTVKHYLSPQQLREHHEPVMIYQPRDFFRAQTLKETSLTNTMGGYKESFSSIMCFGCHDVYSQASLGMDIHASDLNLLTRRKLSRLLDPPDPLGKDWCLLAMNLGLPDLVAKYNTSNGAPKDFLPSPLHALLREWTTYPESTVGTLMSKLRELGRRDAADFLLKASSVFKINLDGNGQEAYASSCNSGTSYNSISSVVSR

concentration at 5.5 h [1]: 12 nM
IC50 [2]: > 50 µM
IC50 [3]: > 50 µM
IC50 [4]: > 50 µM
IC50 [6]: > 50 µM
IC50 [7]: > 50 µM
IC50 [8]: > 50 µM
Tmax [9]: 3.7 h
concentration at 4 h [11]: 825 nM
Kp at 4 h [12]: 17.6
concentration at 5.5 h [15]: 29 nM
concentration at 5.5 h [16]: 378 nM
Kp at 5.5 h [17]: 13
IC50 [18]: 1.2 µM
fraction unbound at 3 h [19]: 0.075
fraction unbound at 3 h [20]: 0.08
Compound: CC(C)C[C@](C)(N)COc1cnc(-c2ccnc(C(F)F)c2)cc1C(F)F
IC50 [5]: > 50 µM
Activity [10]: 95%
Activity [13]: 80%
Activity [14]: 50%

IC50 [21]: 0.0009 µM
IC50 [23]: 1.8 µM
IC50 [24]: 0.18 µM
Compound: COC(=O)Nc1cc(-c2cnc(OC[C@@](C)(N)CC(C)C)c(C)c2)ccn1
IC50 [22]: 2.2 µM

remaining at 22 h [25]: 100%
remaining at 22 h [26]: 100%
solubility at 24 h [28]: > 1000 µg/mL
solubility at 24 h [29]: > 1000 µg/mL
solubility at 24 h [30]: > 1000 µg/mL
solubility at 24 h [31]: > 1000 µg/mL
solubility at 24 h [32]: 288 µg/mL (≈ 773 µM)
solubility at 24 h [33]: > 1000 µg/mL
Compound: COC(=O)Nc1cc(-c2ccc(OC[C@@](C)(N)CC(C)C)c(C)n2)ccn1
Activity [27]: Non-Toxic
Activity [34]: 80%
Activity [35]: 60%
Activity [36]: 40%
IC50 [37]: 0.54 µM
IC50 [38]: 1.4 µM
